By viscosity is commonly meant the resistance of a fluid to flow. Low readings indicate easy flow, high ones sluggish flow.

Structures are written as SMILES. Values joined by “and” are separate entries in the source; they are usually repeats but may differ in a detail not shown here. Equal values may be shown once.

For 26 compounds, electrical conductivity and viscosity results are on record in a compilation of properties of binary mixtures.

This data set is described as follows: xn = mol fraction of the nth substance listed.

In the case of `CCCC[n+]1ccn(C)c1.F[B-](F)(F)F` + CO, the electrical conductivity is, setting by setting: (298.1 K, 101 kPa, x1 = 0.0155) 0.884 S/m; (298.1 K, 101 kPa, x1 = 0.0244) 1.16 S/m.

Regarding `CCCC[n+]1ccn(C)c1.O=S(=O)([N-]S(=O)(=O)C(F)(F)F)C(F)(F)F` + CO, the viscosity by setting is: (298 K, 100 kPa, x1 = 0.1) 1.693 mPa·s; (298 K, 100 kPa, x1 = 0.3834) 8.225 mPa·s; (298 K, 100 kPa, x1 = 0.4974) 12.54 mPa·s; (298 K, 100 kPa, x1 = 0.5875) 16.78 mPa·s; (298 K, 100 kPa, x1 = 0.7988) 30.69 mPa·s; (298 K, 100 kPa, x1 = 0.8995) 38.93 mPa·s.

Take `CC[NH3+].O=[N+]([O-])[O-]` + CO: the viscosity by setting is: (293.15 K, 101 kPa, x2 = 0) 44.9 mPa·s; (293.15 K, 101 kPa, x2 = 0.4) 13.8 mPa·s.

In the case of `O=S(=O)([N-]S(=O)(=O)C(F)(F)F)C(F)(F)F.[Li+]` + COCCOCCOCCOCCOC, the electrical conductivity reads like this: (298 K, 100 kPa, x1 = 0.143) 0.255 S/m; (303 K, 100 kPa, x1 = 0.143) 0.29 S/m; (308 K, 100 kPa, x1 = 0.143) 0.325 S/m; (313 K, 100 kPa, x1 = 0.143) 0.362 S/m; (323 K, 100 kPa, x1 = 0.143) 0.465 S/m.

As to `OCC(F)(F)F` + COP(=O)([O-])OC.Cn1cc[n+](C)c1, the viscosity is given as 6.5 mPa·s (298.15 K, 101 kPa, x2 = 0.1815); 4.6 mPa·s (313.15 K, 101 kPa, x2 = 0.1815); 24.5 mPa·s (313.15 K, 101 kPa, x2 = 0.4904); 70.5 mPa·s (313.15 K, 101 kPa, x2 = 0.803); 3.1 mPa·s (333.15 K, 101 kPa, x2 = 0.1815); 12.8 mPa·s (333.15 K, 101 kPa, x2 = 0.4904).

For `O=C(O)CC(O)(CC(=O)O)C(=O)O` + C[N+](C)(C)Cc1ccccc1.[Cl-], the electrical conductivity was 0.0002 S/m (303.11 K, 101 kPa, x2 = 0.5); 0.0005 S/m (308.2 K, 101 kPa, x2 = 0.5); 0.0011 S/m (313.21 K, 101 kPa, x2 = 0.5); 0.0019 S/m (318.06 K, 101 kPa, x2 = 0.5); 0.0032 S/m (323.14 K, 101 kPa, x2 = 0.5); 0.0095 S/m (333.12 K, 101 kPa, x2 = 0.5). In addition, the viscosity is, setting by setting: (317.97 K, 101 kPa, x2 = 0.5) 152000 mPa·s; (323.1 K, 101 kPa, x2 = 0.5) 89000 mPa·s; (332.88 K, 101 kPa, x2 = 0.5) 28100 mPa·s.

Turning to `CCCCCC[n+]1ccn(C)c1.O=S(=O)([N-]S(=O)(=O)C(F)(F)F)C(F)(F)F` + Cc1ccccc1, the electrical conductivity is, setting by setting: (298.15 K, 100 kPa, x1 = 0.0811) 0.3 S/m; (298.15 K, 100 kPa, x1 = 0.1207) 0.4 S/m; (298.15 K, 100 kPa, x1 = 0.1708) 0.5 S/m; (298.15 K, 100 kPa, x1 = 0.236) 0.6 S/m; (298.15 K, 100 kPa, x1 = 0.3246) 0.6 S/m.

Take `CC(C)C[P+](C)(CC(C)C)CC(C)C.Cc1ccc(S(=O)(=O)[O-])cc1` + O: the viscosity worked out at 1.65 mPa·s (293.15 K, 101 kPa, x1 = 0.0066); 2.6 mPa·s (293.15 K, 101 kPa, x1 = 0.0152); 1320 mPa·s (293.15 K, 101 kPa, x2 = 0); 6.9 mPa·s (293.15 K, 101 kPa, x2 = 0.9557).

As for `CC(CC(C)(C)C)CP(=O)([O-])CC(C)CC(C)(C)C.CCCCCCCCCCCCCC[P+](CCCCCC)(CCCCCC)CCCCCC` + O, the viscosity reads like this: (298.15 K, 100 kPa, x1 = 0.0942) 133 mPa·s; (298.15 K, 100 kPa, x1 = 0.1083) 128 mPa·s; (303.15 K, 100 kPa, x2 = 0.8862) 119.5 mPa·s.

In turn, `CCCCCCCCCC[n+]1ccn(C)c1.O=S(=O)([N-]S(=O)(=O)C(F)(F)F)C(F)(F)F` + O had a viscosity (293.15 K, 101 kPa, x2 = 0.204) of 105 mPa·s. For the same compound, the electrical conductivity (295.15 K, 101 kPa, x2 = 0.204) was determined as 0.15 S/m.

Where the note is “298 K, 101 kPa, x2 = 0.113”, `CCCCCCCC[n+]1ccn(C)c1.F[P-](F)(F)(F)(F)F` + O registered a viscosity of 506 mPa·s.

Compound `CCCCCCCC[n+]1ccn(C)c1.O=S(=O)([N-]S(=O)(=O)C(F)(F)C(F)(F)F)C(F)(F)C(F)(F)F` + O registered a viscosity (293.15 K, 101 kPa, x2 = 0.148) of 167 mPa·s. The same compound yielded an electrical conductivity (295.15 K, 101 kPa, x2 = 0.148) of 0.13 S/m.

As for `CCCCCCCCn1cc[n+](C)c1.O=S(=O)([N-]S(=O)(=O)C(F)(F)F)C(F)(F)F` + O, the viscosity (293.15 K, 101 kPa, x2 = 0.205) is 75 mPa·s. The same compound registered an electrical conductivity (295.15 K, 101 kPa, x2 = 0.205) of 0.21 S/m.

As to `CCCCCCCCn1cc[n+](C)c1.[Br-]` + O, the viscosity is, setting by setting: (298.15 K, 100 kPa, x2 = 0.9008) 31.3 mPa·s; (298.15 K, 100 kPa, x2 = 0.9487) 7.96 mPa·s.

`CCCCCC[n+]1ccn(C)c1.F[P-](F)(F)(F)(F)F` + O showed a viscosity (298 K, 101 kPa, x2 = 0.1334) of 452 mPa·s.

Turning to `CCCCCC[n+]1ccn(C)c1.O=S(=O)([N-]S(=O)(=O)C(F)(F)F)C(F)(F)F` + O, for the setting “293.15 K, 101 kPa, x2 = 0.233”, the viscosity is 55 mPa·s.

For `CCCCCC[n+]1ccn(C)c1.[Br-]` + O, the viscosity (298.15 K, 100 kPa, x2 = 0.9487) worked out at 2.88 mPa·s.

As to `CCCC[n+]1ccn(C)c1.F[B-](F)(F)F` + O, the electrical conductivity is 0.0392 S/m (288.15 K, 100 kPa, x1 = 0.0001); 0.0505 S/m and 0.036 S/m (298.15 K, 100 kPa, x1 = 0.0001); 0.0942 S/m and 0.0522 S/m (318.15 K, 100 kPa, x1 = 0.0001).

Where the note is “298 K, 101 kPa, x2 = 0.0716”, `CCCC[n+]1ccn(C)c1.O=S(=O)([N-]S(=O)(=O)C(F)(F)F)C(F)(F)F` + O registered a viscosity of 27 mPa·s.

Turning to `CCCC[n+]1ccn(C)c1.[Br-]` + O, under “298.15 K, 100 kPa, x2 = 0.9487”, the viscosity is 2.21 mPa·s.

With `CC[N+](CC)(CC)CCCS(=O)(=O)O.F[B-](F)(F)F` + O, the electrical conductivity worked out at 0.475 S/m (298 K, 101 kPa, x1 = 0.0002); 0.658 S/m (298 K, 101 kPa, x1 = 0.0004); 0.921 S/m (298 K, 101 kPa, x1 = 0.001); 1.45 S/m (298 K, 101 kPa, x1 = 0.0016); 2.04 S/m (298 K, 101 kPa, x1 = 0.004); 2.14 S/m (298 K, 101 kPa, x1 = 0.006). For the same compound, the electrical conductivity runs as follows: (298 K, 101 kPa, x1 = 0.008) 2.28 S/m; (298 K, 101 kPa, x1 = 0.01) 2.32 S/m.

In the case of `CC[n+]1ccn(C)c1.CS(=O)(=O)[O-]` + O, the viscosity was 88.7 mPa·s (283.15 K, 102.2 kPa, x1 = 0.75); 69 mPa·s (288.15 K, 102.2 kPa, x1 = 0.75); 53.3 mPa·s (293.15 K, 102.2 kPa, x1 = 0.75); 28.4 mPa·s (308.15 K, 102.2 kPa, x1 = 0.75); 20.6 mPa·s (318.15 K, 102.2 kPa, x1 = 0.75); 17.9 mPa·s (323.15 K, 102.2 kPa, x1 = 0.75). Besides, the viscosity (333.15 K, 102.2 kPa, x1 = 0.75) was 14 mPa·s.

For the compound `CC[n+]1ccn(C)c1.O=S(=O)([N-]S(=O)(=O)C(F)(F)F)C(F)(F)F` + O, the viscosity is recorded as 18.2 mPa·s (297.55 K, 101 kPa, x1 = 0.722); 21.9 mPa·s (297.55 K, 101 kPa, x1 = 0.8); 28.9 mPa·s (297.55 K, 101 kPa, x1 = 0.941); 36.3 mPa·s (297.55 K, 101 kPa, x1 = 1).

For `CC[n+]1ccn(C)c1.O=S(=O)([O-])C(F)(F)F` + O, the electrical conductivity is 1.12 S/m (296.75 K, 101 kPa, x2 = 0.304); 1.23 S/m (298.15 K, 101 kPa, x2 = 0.304); 1.22 S/m (298.35 K, 101 kPa, x2 = 0.304); 1.32 S/m (300.65 K, 101 kPa, x2 = 0.304); 1.33 S/m (301.05 K, 101 kPa, x2 = 0.304); 1.37 S/m (301.85 K, 101 kPa, x2 = 0.304). The electrical conductivity (302.75 K, 101 kPa, x2 = 0.304) worked out at 1.44 S/m.

The compound `CCn1cc[nH+]c1.O=S(=O)([N-]S(=O)(=O)C(F)(F)F)C(F)(F)F` + O gave a viscosity (297.55 K, 101 kPa, x1 = 0.359) of 11.2 mPa·s; a viscosity (297.55 K, 101 kPa, x1 = 0.667) of 24.1 mPa·s; a viscosity (297.55 K, 101 kPa, x1 = 0.8) of 32.7 mPa·s; a viscosity (297.55 K, 101 kPa, x1 = 0.941) of 50.8 mPa·s; a viscosity (297.55 K, 101 kPa, x1 = 1) of 57.1 mPa·s.

Regarding `CC(O)C(=O)[O-].CN(C)CCOCC[NH+](C)C` + O, the viscosity by setting is: (298.15 K, 100 kPa, x1 = 0.0172) 1.2 mPa·s; (298.15 K, 100 kPa, x1 = 0.0301) 1.28 mPa·s; (298.15 K, 100 kPa, x1 = 0.0456) 1.76 mPa·s; (298.15 K, 100 kPa, x1 = 0.0985) 6.58 mPa·s.
